The numbers were not newly measured in patent US12324811B2, “Intranasal formulation” (CIPLA LIMITED, priority 2018, dated 2025), which cites them from elsewhere.

The conditions of data set [1]: active metabolite.
For data set [2] the following is noted: oral administration.
For data set [3] the following is noted: intranasally administered, children and adults.

For `OCc1ncc2n1-c1ccc(Cl)cc1C(c1ccccc1F)=NC2` [alpha1-hydroxymidazolam], the “contribution to biological activity of midazolam” value in data set [1] was 10%.

With Midazolam, in data set [2], the “drug reaching the bloodstream” value is on record as 50%. Also, in data set [3], the onset of action result is on record as “about 10 minutes”.
